Measurements from patent US12637435B2, “Nitrogen-containing heterocyclic compound or salt thereof, use thereof, and intermediate thereof” (FUJIFILM Corporation, priority 2020, dated 2026).

Tests used:
recombinant human DHODH = biological target: T1, recombinant human DHODH (Homo sapiens, UniProt Q02127); assay: DHODH enzyme reaction inhibition test (DCIP-coupled assay); format: biochemical; details: recombinant human DHODH 0.175 μg/mL, DCIP absorbance 600 nm, 50 minutes, pH 8.0; read-out: Enzyme reaction inhibitory effect (IC50)
T1 construct: DHODH, 31-395aa, Human, His tag, E. coli, ATGP1615; His tag; purchased ATGen Co. Ltd. ATGP1615; host or cells: E. coli
Experimental: The DHODH enzyme assay was carried out with reference to “Benjamin Bader, Wolfgang Knecht, Markus Fries, and Monika Loffler, Expression, Purification, and Characterization of Histidine-Tagged Rat and Human Flavoenzyme Dihydroorotate Dehydrogenase, Protein Expression and Purification, 1998, 13, 414-422.”
The DHODH activity was evaluated using an enzyme assay system that is coupled with an assay in which a blue coloring agent 2,6-dichlorophenolindophenol (DCIP, available from MP Biomedicals, LLC, MP150118) is quenched. Purified recombinant human DHODH (DHODH, 31-395aa, Human, His tag, E. coli, ATGP1615) was purchased from ATGen Co. Ltd. The enzyme assay was carried out in a 384-well plate using a buffer solution containing 100 mmol/L Hepes (available from Dojindo Laboratories, 342-01375), 400 mmol/L NaCl (available from FUJIFILM Wako Pure Chemical Corporation, 191-01665), 10% Glycerol (available from FUJIFILM Wako Pure Chemical Corporation, 075-00616), 0.05% Triton X-100 (available from Sigma-Aldrich Co., LLC, T8787-100ML), 0.2 mmol/L Ubiquinone-10 (available from FUJIFILM Wako Pure Chemical Corporation, 216-00761), 0.1 mmol/L DHO (L-dihydroorotic acid, available from Sigma-Aldrich Co., LLC, D7128), 0.5% DMSO (dimethylsulfoxide, available from FUJIFILM Wako Pure Chemical Corporation, 047-29353), 0.175 μg/mL DHODH, and 0.12 mmol/L DCIP and having a pH adjusted to 8.0 by adding 5 mol/L potassium hydroxide (available from FUJIFILM Wako Pure Chemical Corporation, 168-21815). A test compound with a predetermined concentration was added using Biomek NX (available from Beckman Coulter Inc.), and the enzyme reaction was started by adding the substrate. The enzyme activity was assessed by measuring the decrease in DCIP absorbance (600 nm) for 50 minutes using an EnVision plate-reading spectrophotometer (available from PerkinElmer, Inc.).
The enzyme reaction inhibition rate at each test compound concentration was determined, and the 50% enzyme reaction inhibition concentration [IC50 (nmol/L)] was calculated using XLfit. Enzyme reaction inhibition rate (%)=(amount of luminescence in test compound-added well)/(amount of luminescence in DMSO-added well)×100
The abbreviations in the table have the following meanings. • A: IC50 value<10 nmol/L • B: 10 nmol/L≤IC50 value<100 nmol/L • C: 100 nmol/L≤IC50 value

[1] = tested on: human myeloid leukemia cell line HL60; assay: Cell growth test, HL60 (CellTiter-Glo); format: cell-based; details: HL-60, 72 h, HL60 cells, 3 days, CellTiter-Glo luminescence, read-out: Cell growth inhibitory effect (GI50)
Experimental: The cell growth test was carried out using the human myeloid leukemia cell line HL60 (available from ATCC, CRL-240). As a culture medium of HL60 cells, RPMI 1640 (available from FUJIFILM Wako Pure Chemical Corporation, 189-02025) supplemented with 10% fetal bovine serum (available from Thermo Fisher Scientific, Inc., 10437-028), and 1% penicillin-streptomycin (10,000 U/mL, available from Thermo Fisher Scientific, Inc., 15140-122) was used. HL60 cells were seeded on a 384-well plate (available from Corning Inc., 4588) at a cell density of 1×10^3 cells/20 μL/well. After culturing overnight, 5 μL of the test compound having a predetermined concentration was added, and 3 days later, 25 μL of CellTiter-Glo (registered trademark) Luminescent Cell Viability Assay (available from Promega Corporation, G7573) was added, and then the amount of luminescence was measured using an EnVision plate reader (available from PerkinElmer, Inc.). Since the amount of luminescence is proportional to the intracellular concentration of adenosine triphosphate (ATP), the amount of luminescence was used as an indicator of the number of viable cells. The growth inhibitory concentration for each test compound concentration was calculated by the following expression.
The growth inhibition rate at each test compound concentration was determined, and the 50% growth inhibitory concentration [GI50 (nmol/L)] was calculated using XLfit. Growth inhibition rate (%)=(amount of luminescence in test compound-added well)/(amount of luminescence in DMSO-added well)×100
The abbreviations in the table have the following meanings. • A: GI50 value<100 nmol/L • B: 100 nmol/L≤GI50 value<1,000 nmol/L • C: 1,000 nmol/L≤GI50 value

T1 sequence (Q02127 31-395): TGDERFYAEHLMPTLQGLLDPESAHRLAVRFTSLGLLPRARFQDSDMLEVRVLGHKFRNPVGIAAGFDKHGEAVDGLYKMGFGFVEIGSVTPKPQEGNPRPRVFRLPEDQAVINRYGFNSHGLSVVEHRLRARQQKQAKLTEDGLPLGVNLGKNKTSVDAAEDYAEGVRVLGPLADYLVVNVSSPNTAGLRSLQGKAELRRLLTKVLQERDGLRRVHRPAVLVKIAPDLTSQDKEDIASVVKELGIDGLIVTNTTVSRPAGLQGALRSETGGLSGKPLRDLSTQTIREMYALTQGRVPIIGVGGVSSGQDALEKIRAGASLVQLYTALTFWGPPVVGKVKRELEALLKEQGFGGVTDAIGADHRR

Row | SMILES | IC50 (recombinant human DHODH) [nM] | GI50 [1] [nM]
1 | N#Cc1ccc(-c2cccc(Nc3ncc(C4CC4)cc3C(=O)O)c2OCC(F)(F)F)cc1 [Example 2-7] | < 10 | < 100
2 | O=C(O)c1nc(C2CC2)cnc1Nc1cccc(-c2ccc(F)cc2)c1OCC(F)(F)F [Example 2-13] | < 10 | < 100
3 | N#Cc1ccc(-c2cccc(Nc3ncc(C4CC4)nc3C(=O)O)c2OCC(F)(F)F)cc1 [Example 2-4] | < 10 | < 100
4 | CCOc1c(C2=CCOCC2)ccc(F)c1Nc1ncc(C2CC2)cc1C(=O)O [Example 2-14] | < 10 | 100 to 1000
5 | NNC(=O)c1nc(C2CC2)cnc1Nc1cccc(C2=CCOCC2)c1OCC(F)(F)F [Example 1-8, 6-cyclopropyl-3-((3-(3,6-dihydro-2H-pyran-4-yl)-2-(2,2,2-trifluoroethoxy)phenyl)amino)pyrazine-2-carbohydrazide] | 10 to 100 | 100 to 1000
6 | O=C(O)c1cc(C2CC2)cnc1Nc1cc(F)cc(C2CCOCC2)c1OC(F)F [Example 2-3] | < 10 | < 100
7 | N#CNCc1nc(C2CC2)cnc1Nc1cccc(C2=CCOCC2)c1OCC(F)(F)F [Example 1-16, N-((6-cyclopropyl-3-((3-(3,6-dihydro-2H-pyran-4-yl)-2-(2,2,2-trifluoroethoxy)phenyl)amino)pyrazin-2-yl)methyl)cyanamide] | 10 to 100 | 100 to 1000
8 | CN(C)NC(=O)c1nc(C2CC2)cnc1Nc1cccc(C2=CCOCC2)c1OCC(F)(F)F [Example 1-13, 6-cyclopropyl-3-((3-(3,6-dihydro-2H-pyran-4-yl)-2-(2,2,2-trifluoroethoxy)phenyl)amino)-N,N-dimethylpyrazine-2-carbohydrazide] | ≥ 100 | ≥ 1000
9 | O=C(O)c1cc(C2CC2)ncc1Nc1cccc(C2=CCOCC2)c1OCC(F)(F)F [Example 2-16] | < 10 | 100 to 1000
10 | N#Cc1ccc(-c2cc(F)cc(Nc3ncc(C4CC4)nc3C(=O)O)c2OC(F)F)cc1 [Example 2-12] | 10 to 100 | 100 to 1000
11 | CC(O)c1nc(C2CC2)cnc1Nc1cccc(C2=CCOCC2)c1OCC(F)(F)F (stereo not shown) [Example 1-11, 1-(6-cyclopropyl-3-((3-(3,6-dihydro-2-H-pyran-4-yl)-2-(2,2,2-trifluoroethoxy)phenyl)amino)pyrazin-2-yl)ethan-1-ol] | ≥ 100 | ≥ 1000
12 | CC(=O)c1nc(C2CC2)cnc1Nc1cccc(C2=CCOCC2)c1OCC(F)(F)F [Example 1-10, 1-(6-cyclopropyl-3-((3-(3,6-dihydro-2H-pyran-4-yl)-2-(2,2,2-trifluoroethoxy)phenyl)amino)pyrazin-2-yl)ethan-1-one] | 10 to 100 | 100 to 1000

Second part, the molecule after the results:

Row | IC50 (recombinant human DHODH) [nM] | GI50 [1] [nM] | SMILES
13 | < 10 | < 100 | CS(=O)(=O)NC(=O)c1nc(C2CC2)cnc1Nc1cccc(-c2cccc(C#N)c2)c1OCC(F)(F)F [Example 3-45]
14 | < 10 | < 100 | NS(=O)(=O)NC(=O)c1nc(C2CC2)cnc1Nc1cccc(C2CCOCC2)c1OC(F)F [Example 3-50]
15 | < 10 | < 100 | CS(=O)(=O)NC(=O)c1cc(C2CC2)cnc1Nc1cc(F)cc(C2CCOCC2)c1OCC(F)(F)F [Example 3-42]
16 | < 10 | < 100 | CCOc1ccc(Nc2ncc(C3CC3)nc2C(=O)NS(C)(=O)=O)c(OCC)c1C1=CCOCC1 [Example 3-58]
17 | 10 to 100 | 100 to 1000 | N#Cc1ccc(-c2cc(F)cc(Nc3ncc(C4CC4)nc3C(=O)NS(N)(=O)=O)c2OC(F)F)cc1 [Example 3-54]
18 | < 10 | < 100 | CCOc1c(Nc2ncc(C3CC3)cc2C(=O)NS(C)(=O)=O)ccc(F)c1C1=CCOCC1 [Example 3-60]
19 | 10 to 100 | ≥ 1000 | O=C(NS(=O)(=O)C1CC1)c1nc(C2CC2)cnc1Nc1cccc(C2=CCOCC2)c1OCC(F)(F)F [Example 3-21]
20 | 10 to 100 | 100 to 1000 | N#Cc1ccc(-c2cccc(Nc3ncc(C4CC4)nc3C(=O)NS(N)(=O)=O)c2OC(F)F)cc1 [Example 3-52]
21 | < 10 | < 100 | C[C@H](Oc1c(Nc2ncc(C3CC3)nc2C(=O)NS(N)(=O)=O)cccc1C1=CCOCC1)C(F)(F)F [Example 3-27]
22 | < 10 | < 100 | CONC(=O)c1nc(C2CC2)cnc1Nc1cccc(C2=CCOCC2)c1OCC(F)(F)F [Example 3-5]
23 | < 10 | < 100 | CCOc1c(Nc2ncc(C3CC3)nc2C(=O)NS(C)(=O)=O)cccc1C1=CCOCC1 [Example 3-57]
24 | < 10 | < 100 | N#CNC(=O)c1cc(C2CC2)cnc1Nc1cccc(-c2ccc(C#N)cc2)c1OCC(F)(F)F [Example 3-39]
25 | < 10 | < 100 | N#CNC(=O)c1nc(C2CC2)cnc1Nc1cccc(C2=CCOCC2)c1OCC(F)(F)F [Example 3-1]
26 | 10 to 100 | 100 to 1000 | C[C@H](Oc1c(Nc2ccc(C3CC3)cc2C(=O)NS(C)(=O)=O)cncc1C1=CCOCC1)C(F)(F)F [Example 3-25]
27 | 10 to 100 | ≥ 1000 | CCS(=O)(=O)NC(=O)c1nc(C2CC2)cnc1Nc1cccc(C2=CCOCC2)c1OCC(F)(F)F [Example 3-17]
28 | < 10 | < 100 | NS(=O)(=O)NC(=O)c1nc(C2CC2)cnc1Nc1cccc(C2=CCOCC2)c1OCC(F)(F)F [Example 3-10]
29 | < 10 | 100 to 1000 | CS(=O)(=O)NC(=O)c1cc(C2CC2)ncc1Nc1cccc(C2=CCOCC2)c1OCC(F)(F)F [Example 3-61]
30 | < 10 | < 100 | N#Cc1ccc(-c2cccc(Nc3ncc(C4CC4)cc3C(=O)NS(N)(=O)=O)c2OCC(F)(F)F)cc1 [Example 3-37]
31 | 10 to 100 | 100 to 1000 | Cc1ccc(-c2cccc(Nc3ncc(C4CC4)nc3C(=O)NS(C)(=O)=O)c2OCC(F)(F)F)c(C)n1 [Example 3-15]
32 | < 10 | < 100 | CS(=O)(=O)NC(=O)c1cc(C2CC2)cnc1Nc1cccc(C2CCOCC2)c1OCC(F)(F)F [Example 3-34]
33 | 10 to 100 | 100 to 1000 | C[C@H](Oc1c(Nc2ccc(C3CC3)cc2C(=O)NS(C)(=O)=O)ccnc1C1=CCOCC1)C(F)(F)F [Example 3-64]
34 | < 10 | 100 to 1000 | C[C@H](Oc1c(Nc2ncc(C3CC3)nc2C(=O)NS(N)(=O)=O)cccc1C1CCOCC1)C(F)(F)F [Example 3-7]
35 | < 10 | < 100 | N#CNC(=O)c1cc(C2CC2)cnc1Nc1cccc(C2CCOCC2)c1OCC(F)(F)F [Example 3-6]
36 | < 10 | < 100 | Cc1cc(C#N)ccc1-c1cccc(Nc2ncc(C3CC3)nc2C(=O)NS(C)(=O)=O)c1OCC(F)(F)F [Example 3-16]
37 | ≥ 100 | ≥ 1000 | CN(C)S(=O)(=O)NC(=O)c1nc(C2CC2)cnc1Nc1cccc(C2=CCOCC2)c1OCC(F)(F)F [Example 3-11]
38 | 10 to 100 | 100 to 1000 | CCc1c(Nc2ncc(C3CC3)nc2C(=O)NS(C)(=O)=O)cccc1C1CCOCC1 [Example 3-48]
